Experimental data as given in patent US7960433B2, “Treatment of chemokine mediated diseases” (Schering Corporation, priority 2002, dated 2011).

Assays:
[1] = system: myeloperoxidase (MPO) activity; experiment: Carrageenan-induced rat paw edema model: MPO activity in hindpaw inflammatory fluid (neutrophil accumulation); assay type: in vivo, male Sprague-Dawley rats; details: oral, 3 hrs after carrageenan; Compound A 1 mg/kg, indomethacin 0.5 mg/kg, alone or combined
Description: Carrageenan (0.05 ml of an 1% solution in saline) was injected into one hindpaw of male Sprague-Dawley rats. Paw volumes (ml) were measured by a water displacement plethysmometer prior to and 3 h after the injection of carrageenan. The increase in paw volume that occurred between the two timepoints was determined for each group. Rats received Compound A:
(§1) [drawing 179] (see Example 405 of WO 02/083624) or standard drugs in methylcellulose vehicle by the oral route, 1 hr before carrageenan injection. The percentage by which the edematous response was inhibited was calculated by comparing the increase in paw edema of drug-treated rats to that of vehicle-treated controls. To determine neutrophil accumulation in the paws, rats were sacrificed at 3 hrs and myeloperoxidase (MPO) activity was measured from inflammatory fluid expressed from the hindpaw using a colorimetric assay (Bradley et al., 1982). PGE2 production in the hindpaw was assessed by ELISA (R&D Systems, Minneapolis, Minn.).

IL-1β = experiment: SCW mouse knee model: IL-1β production by ex vivo patellar organ culture; assay type: in vivo, female C57BL/6J mice
Description: (§2) The method described by Lubberts et al, 1998 was used for these studies, with some modifications. Female 8-12 week old C57BL/6J animals were fasted overnight and dosed orally with Compound A, indomethacin, or a combination of these agents suspended in methylcellulose one hour prior to a single intra-articular injection of 6 μl containing 25 μg of bacterial SCW (4.32 mg/ml rhammose; Lee Laboratories, Grayson, Ga.) in saline into the right knee joint. The left knee joint received an injection of 6 μl of saline at the same time. In other experiments, a neutralizing rat anti-mouse TNFα antibody or matched rat IgG isotype control was administered intraperitoneally two hours prior to SCW injection and Compound A or methylcellulose vehicle was orally administered one hour prior to SCW injection. Knee swelling measurements were performed 2 hours after SCW injection using a dial-gauge caliper ([…], Athol, Mass.) by measuring the difference in swelling between the right and left knee joints. Patellar organ cultures for assessment of synovial cytokine and chemokine and prostaglandin levels were prepared at 2 hours after SCW injection and established as described (Lubberts et al, 1998), using ELISA kits obtained from R&D Systems (Minneapolis, Minn.). Statistical analysis was performed using the Student's t-test, with p<0.05 considered to be indicative of statistical significant differences between groups.

[2] = system: SCW-induced knee swelling; experiment: Streptococcal cell wall-induced mouse knee swelling model: knee swelling; assay type: in vivo, female C57BL/6J mice; details: 2 hours after SCW injection
Description: as §2

PGE2 [3] = experiment: SCW mouse knee model: PGE2 levels in patellar organ culture; assay type: in vivo, female C57BL/6J mice
Description: as §2, with “Statistical analysis was performed using the Student's t-test, with p<0.05 considered to be indicative of statistical significant differences between groups.” left out

[4] = system: carrageenan-induced paw edema; experiment: Carrageenan-induced rat paw edema model: paw volume; assay type: in vivo, male Sprague-Dawley rats; details: oral, 1 hr before carrageenan, paw volume at 3 h; suboptimal doses: Compound A 1 mg/kg, indomethacin 0.5 mg/kg, betamethasone 0.05 mg/kg, alone or combined
Description: as §1, with “Carrageenan (0.05 ml of an 1% solution in saline) was injected into one hindpaw of male Sprague-Dawley rats. […] The increase in paw volume that occurred between the two timepoints was determined for each group. Rats received Compound A: [drawing” for “[drawing”

PGE2 [5] = experiment: Carrageenan-induced rat paw edema model: PGE2 production in the hindpaw (ELISA); assay type: in vivo, male Sprague-Dawley rats; details: oral; Compound A 1 mg/kg, betamethasone 0.05 mg/kg, alone or combined
Description: as §1, with “Carrageenan (0.05 ml of an 1% solution in saline) was injected into one hindpaw of male Sprague-Dawley rats. […] The increase in paw volume that occurred between the two timepoints was determined for each group. Rats received Compound A: [drawing” for “[drawing”

[6] = indomethacin alone (2 mg/kg oral)

| Compound | inhibition of MPO activity in the hindpaw [1] [%] | inhibition of IL-1β production by ex vivo patellar organ culture (IL-1β; [6]) [%] | inhibition of knee swelling ([2]; indomethacin 2 mg/kg oral alone) [%] | inhibition of PGE2 levels in patellar organ culture (PGE2 [3]; [6]) [%] | inhibition of paw edema [4] [%] | inhibition of paw PGE2 levels (PGE2 [5]) [%] | inhibition of IL-1β production by ex vivo patellar organ culture (IL-1β; Compound A 10 mg/kg oral, alone or with indomethacin) [%] | inhibition of IL-1β production by ex vivo patellar organ culture (IL-1β; Compound A 25 mg/kg oral, alone or with indomethacin) [%] | inhibition of knee swelling ([2]; Compound A 10 mg/kg oral, alone or with indomethacin 2 mg/kg) [%] | inhibition of knee swelling ([2]; Compound A 25 mg/kg oral, alone or with indomethacin 2 mg/kg) [%] | inhibition of PGE2 levels in patellar organ culture (PGE2 [3]; Compound A alone at 10-25 mg/kg oral) |
| --- | --- | --- | --- | --- | --- | --- | --- | --- | --- | --- | --- |
| COc1ccc2c(c1)c(CC(=O)O)c(C)n2C(=O)c1ccc(Cl)cc1 [indomethacin, reference compound] | −58 | 11 | 42 | 89 | 0 |  |  |  |  |  |  |
| C[C@H]1C[C@H]2[C@@H]3CCC4=CC(=O)C=C[C@]4(C)[C@@]3(F)[C@@H](O)C[C@]2(C)[C@@]1(O)C(=O)CO [betamethasone, reference compound] |  |  |  |  | 32 | 31 |  |  |  |  |  |
| CC[C@@H](Nc1c(Nc2cccc(C(=O)N(C)C)c2O)c(=O)c1=O)c1ccc(C)o1 [Compound A] | 67 |  |  |  | 20 | 31 | 49 | 64 | 46 | 70 | 34-40% |
